A short description of the data set: gradient 5% acetonitrile 3 min, to 50% in 2 min, to 85% in 15 min, held 3 min, 100 µL/min. The settings on record: column: Zorbax Extend-C18 2.1 x 50 mm; eluents: water / acetonitrile, 0.1% formic acid. The essentials: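 Over 3 months, pure standards in mixtures of ~100 molecules were run by HPLC coupled to a quadrupole time-of-flight mass spectrometer in positive and negative ionization mode. The column was a Zorbax Extend-C18 (2.1 × 50 mm, 1.8 μm) at 100 μL/min, eluted with water and acetonitrile each holding 0.1% formic acid, with 40 μL dead and 900 μL dwell volumes. Retention time was determined from adduct peaks chosen by software and checked manually.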
Molecule `CCN(CC)CCNC(=O)CCc1cc2cc(C)ccc2[nH]c1=O` displayed an RP-LC retention time of 587 s.

As to `Cc1cnc2c(c1SCC(=O)N(C)c1ccccc1)c(=O)n(C)c(=O)n2C`, the RP-LC retention time came out at 769 s.

As for `CCNc1cc(N2CCCC(CCC(=O)NCCN3CCCCCC3)C2)ncn1` (stereo not given), the RP-LC retention time is 550 s.

For `CCC(C)NC(=O)c1c(C)sc2ccn(Cc3ccc(F)cc3)c(=O)c12` (stereo not given), the RP-LC retention time came to 929 s.

`COC(=O)c1ccc(-c2nc3cnccn3c2Nc2cccc(C)c2C)cc1` displayed an RP-LC retention time of 980 s.

In turn, `O=C(NCCc1ccccc1)C1CN(S(=O)(=O)c2cccnc2)CC12CCCCC2` (stereo not given) had an RP-LC retention time of 895 s.

For the molecule `O=C(Cn1nc2c3cc(-c4ccccc4)nn3ccn2c1=O)Nc1ccccc1Cl`, the RP-LC retention time stood at 902 s.

In the case of `CCCNc1cc(N2CCCC(CCC(=O)Nc3ccc(OC)cc3OC)C2)ncn1` (stereo not given), the RP-LC retention time is 707 s.

With `CC(C)n1cc(C2=CCN(S(=O)(=O)Cc3cccc(Cl)c3)CC2)c2cccnc21`, the RP-LC retention time was 1130 s.

With `COc1ccc(CC(=O)Nc2ccc(-c3nc(Cn4cc(C)cn4)c(C)o3)cc2)cc1`, the RP-LC retention time is 889 s.

Turning to `O=C(O)c1cccc(-c2noc(-c3ccccc3F)n2)c1`, the RP-LC retention time worked out at 964 s.

`CCCN1C(=O)COc2ccc(-c3noc(COc4ccc(Cl)cc4C)n3)cc21` returned an RP-LC retention time of 1260 s.

Molecule `CCOc1cc(C(=O)Nc2nnc(-c3ccc(Cl)s3)o2)cc(OCC)c1OCC` showed an RP-LC retention time of 986 s.

`CCNC(=O)c1ccc2c(c1)CCCN2S(=O)(=O)CC` returned an RP-LC retention time of 709 s.

In turn, `CN1CCCc2cc(C(=O)NCc3cccc(F)c3)sc21` showed an RP-LC retention time of 915 s.

As to `CCCNC(=O)N1C[C@@H]2CCCN3CCC[C@@H]([C@H]23)[C@H]1CCCC(=O)NCC1CC1`, the RP-LC retention time is 576 s.

Consider `CCc1nc(-n2cccc2)sc1C(=O)Nc1ccc(C)cc1F`, for which the RP-LC retention time worked out at 1200 s.

The molecule `COc1cc(NC(=O)NCCc2nc3cccnc3n2C2CCCCC2)cc(OC)c1` yielded an RP-LC retention time of 751 s.

On to `O=C(NCc1cc(F)ccc1F)C1CCc2nc(N3CCCCC3)ncc2C1` (stereo not given), for which the RP-LC retention time came to 743 s.

`CCc1ccc(CNC(=O)c2nc3cccnc3n(CC)c2=O)cc1` registered an RP-LC retention time of 915 s.

Molecule `C=CCn1c(=O)c2ccccc2n(Cc2nc(-c3ccccc3Br)no2)c1=O` came in with an RP-LC retention time of 1040 s.

As to `CCc1ccccc1NC(=O)N1CCC(N2CCN(Cc3ccccc3)C(=O)C2=O)CC1`, the RP-LC retention time worked out at 730 s.

As for `CC1CCN(C(=O)CCCN2C(=O)CCn3nc(-c4cn(C)c5ccccc45)cc32)CC1`, the RP-LC retention time was 880 s.

With `CCN1C(=O)c2cccnc2Sc2cc(NC(=O)C3CCCCC3)ccc21`, the RP-LC retention time stood at 877 s.

On to `Cn1cc(CN2CCCC(COc3ccccc3C(=O)NC3CC3)C2)c2ccccc21` (stereo not given), for which the RP-LC retention time was 686 s.

As for `CC(C)CCNC(=O)c1ccc2nc(CCc3ccc(NC(=O)C(C)C)cc3)[nH]c2c1`, the RP-LC retention time was 676 s.

Take `CC(=O)N1CCN(C(=O)c2ccc(C(=O)O)cc2)CC1`: the RP-LC retention time came to 530 s.

The molecule `O=C(c1ccsc1)N1CCN(c2[nH]ncc2-c2ccccc2)CC1` came in with an RP-LC retention time of 774 s.

`O=c1c2ccccc2c(-c2nc(-c3cccnc3)no2)nn1-c1ccc(F)cc1` registered an RP-LC retention time of 998 s.

In turn, `Cc1ccc2oc(-c3noc(C(=O)NC(C)Cc4ccco4)n3)c(C)c2c1` (stereo not given) registered an RP-LC retention time of 1180 s.

In the case of `Cc1cc(C)cc(S(=O)(=O)N2CCC(c3nc(C(=O)N(C)C)c(C)o3)CC2)c1`, the RP-LC retention time stood at 882 s.

In turn, `COc1ccc(CN2CCC(C3CCNC3)CC2)c(Cl)c1OC` (stereo not given) came in with an RP-LC retention time of 556 s.

In turn, `CCOC(=O)c1ccc2nc(NC(=O)c3ccco3)sc2c1` had an RP-LC retention time of 830 s.

The molecule `COCc1nc(C2CCN(C(=O)C3CCC3)C2)no1` (stereo not given) registered an RP-LC retention time of 672 s.

`CNC(=O)c1nc(-c2ccc(C)cc2)n2c1CCCCC2` displayed an RP-LC retention time of 702 s.

Consider `CCCn1cc(CCNS(=O)(=O)c2cccc(C(F)(F)F)c2)c2cccnc21`, for which the RP-LC retention time is 904 s.

As for `CCCn1c(=O)sc2cc(S(=O)(=O)N3CCC(C(=O)N4CCOCC4)CC3)ccc21`, the RP-LC retention time came to 770 s.

The molecule `Cc1ccc(-c2noc(Cn3cnc4c(cnn4-c4ccc(Br)cc4)c3=O)n2)cc1` displayed an RP-LC retention time of 1250 s.

In turn, `c1ccc(-c2nc(-c3ccnc(N4CCOCC4)c3)no2)cc1` returned an RP-LC retention time of 942 s.

Regarding `CCC(=O)Nc1ccc(CCc2nc3ccc(C(=O)NCCC(C)C)cc3[nH]2)cc1`, the RP-LC retention time was found to be 645 s.

In turn, `COCCn1c(CC2CCN(C(=O)Cc3ccsc3)C2)nc2cccnc21` (stereo not given) yielded an RP-LC retention time of 599 s.

`COc1ccc(-c2ncc3c(n2)CCN(S(=O)(=O)c2ccccc2C(F)(F)F)C3)cc1` came in with an RP-LC retention time of 1090 s.

The molecule `CCCN1C(=O)Cc2ccccc2C1C(=O)N1CCOCC1` (stereo not given) gave an RP-LC retention time of 650 s.

As for `CN(CC(=O)Nc1nnc(SCc2ccc(Cl)cc2Cl)s1)S(C)(=O)=O`, the RP-LC retention time came to 874 s.

Take `CCCc1cc(SCC(=O)Nc2nccs2)ncn1`: the RP-LC retention time is 692 s.

Turning to `O=C(CNC(=O)C1COc2ccccc2O1)NCCc1c[nH]c2ccccc12` (stereo not given), the RP-LC retention time was determined as 780 s.

The molecule `Cc1onc(-c2ccccc2Cl)c1C(=O)Nc1nnc(-c2cccs2)o1` returned an RP-LC retention time of 767 s.

Molecule `CCC(C(=O)N1CCn2c(C)nnc2C1)c1ccccc1` (stereo not given) showed an RP-LC retention time of 643 s.

Take `Cc1ccc(NC(=O)CN2CCc3[nH]c4c(C)cc(F)cc4c(=O)c3C2)c(Cl)c1`: the RP-LC retention time was determined as 665 s.

`CCCc1cc(N2CCN(C(=O)c3ccco3)CC2)nc2nnc(C)n12` had an RP-LC retention time of 868 s.

Take `Cc1ccc(N(C)C(=O)C2CCN(S(=O)(=O)c3ccc4c(c3)NC(=O)CO4)CC2)cc1`: the RP-LC retention time is 780 s.

In turn, `Cc1cccn2cc(-c3cccc(S(=O)(=O)N4CCCCC4)c3)nc12` showed an RP-LC retention time of 700 s.

On to `Cc1nc2cc(-c3noc(-c4ccc(F)cc4)n3)ccc2n(C(C)C)c1=O`, for which the RP-LC retention time came out at 1200 s.

The molecule `Cc1ccc(N2C=C(C(=O)N3CCOCC3)S(=O)(=O)c3ccc(Cl)cc32)cc1Cl` registered an RP-LC retention time of 970 s.

With `O=[N+]([O-])c1cccc(C2SCCN2S(=O)(=O)c2ccc(Br)cc2)c1` (stereo not given), the RP-LC retention time was 1020 s.

`Cc1ccc(N2CCC(NC(=O)C(C)C)C2=O)cc1C` (stereo not given) yielded an RP-LC retention time of 762 s.

Molecule `Cc1cccc(OCc2nc(-c3cccc(-c4csc(C)n4)c3)no2)c1` had an RP-LC retention time of 1250 s.

Turning to `CCOc1ccccc1NC(=O)C(=O)NCc1cc(C)oc1C`, the RP-LC retention time worked out at 697 s.

Molecule `Cc1ccc(-c2cn3c(CC(=O)Nc4ccc(F)cc4C)csc3n2)cc1C` gave an RP-LC retention time of 862 s.

`Cc1nn(C)c(C)c1CCCN(C)C(=O)c1cccc(N2CCNC(c3ccccc3)C2)n1` (stereo not given) displayed an RP-LC retention time of 558 s.

Take `CC(C)c1noc(-c2cc(=O)n(CC(=O)Nc3ccc(F)c(Cl)c3)c3ccccc23)n1`: the RP-LC retention time amounted to 1100 s.

With `COC1C(=O)N(CC2CC2)C12CCN(S(=O)(=O)Cc1ccccc1)CC2` (stereo not given), the RP-LC retention time came out at 819 s.

With `Cc1ccc(NC(=O)CNS(=O)(=O)c2cc(-c3noc(C)n3)sc2C)nc1`, the RP-LC retention time is 730 s.

In turn, `COc1ccc(-c2nc(C)cc(C)c2CNS(=O)(=O)c2ccc(C#N)cc2)cc1` displayed an RP-LC retention time of 636 s.

Consider `CC(C)c1ccc(-c2noc(N3CCC(C(=O)NC4CCCCC4)CC3)n2)cc1`, for which the RP-LC retention time stood at 1180 s.

Consider `O=C(Cn1nc(C(=O)N2CCCC2)c2ccccc21)Nc1cccc(Br)c1`, for which the RP-LC retention time came out at 903 s.

`O=C(Cn1cnc(-c2cccs2)cc1=O)NCCn1nc(-c2ccco2)ccc1=O`: the RP-LC retention time was determined as 636 s.

`CCC(C(=O)Nc1ccc(Cl)cc1)n1cnc2nc3c(cc2c1=O)CCCC3` (stereo not given): the RP-LC retention time worked out at 878 s.

Molecule `Cc1cc2c(cc1S(=O)(=O)N1CCN(c3ccccn3)CC1)n(C)c(=O)n2C` yielded an RP-LC retention time of 606 s.

In turn, `COc1ccccc1NC(=O)Cn1nc2n(c1=O)CCCCC2` returned an RP-LC retention time of 709 s.

Turning to `COc1ccccc1N1CCN(C(=O)C2CCN(c3nnc(-c4ccccc4)o3)CC2)CC1`, the RP-LC retention time came out at 807 s.

In the case of `Cc1cc(=O)n2c(-c3cccc(NC(=O)Cc4cccs4)c3)csc2n1`, the RP-LC retention time amounted to 696 s.

For `O=C(Nc1nc(-c2ccc(Cl)cc2)cs1)c1ccc(COc2ccccc2Cl)o1`, the RP-LC retention time stood at 1310 s.

`Cn1cnc2c(C(=O)Nc3cccc(C(F)(F)F)c3)nn(-c3ccccc3)c2c1=O` showed an RP-LC retention time of 970 s.

Molecule `CCOc1cc(=O)n2c(c1C(=O)OCc1ccc(Cl)cc1)CCCC2` had an RP-LC retention time of 970 s.

With `COc1ccc(OCc2nn3c(-c4ccc(OC)cc4)nnc3s2)cc1`, the RP-LC retention time is 947 s.

As to `O=C(Nc1nc2ccccc2s1)C1CCN(C(=O)c2ccc(F)cc2)CC1`, the RP-LC retention time was 808 s.

Turning to `CCOc1ccc(CC(=O)N2C[C@@H]3C[C@H](NC(=O)c4cccnc4)[C@H]2C3)cc1`, the RP-LC retention time amounted to 645 s.

Molecule `COc1ccc(C2C(C(=O)Nc3ccc4c(c3)OCCO4)c3ccccc3C(=O)N2C)cc1` (stereo not given) gave an RP-LC retention time of 832 s.

`O=C(Nc1ccc2c(c1)OCCO2)C1CCCN(c2nnc3c(Cl)cccn23)C1` (stereo not given) returned an RP-LC retention time of 709 s.
